Results: patent EP0361954A2, “CRF Analogs” (THE SALK INSTITUTE FOR BIOLOGICAL STUDIES, priority 1988, dated 1990)

Columns and labels:
[1] = test system: cultured rat pituitary cells; experiment: Secretion of ACTH and β-endorphin by cultured rat pituitary cells (procedure of Endocrinology, 91, 562 (1972)); format: cell-based; settings: testing by the general procedure of Example III
Description: (§1) The synthetic peptide [D-Glu²⁰]-oCRF is examined for its effects on the secretion of ACTH and β-endorphin in vitro and was also in vivo. The potency of synthetic [D-Glu²⁰]-oCRF to stimulate the secretion of ACTH and β-endorphin by cultured rat pituitary cells is measured using the procedure as generally set forth in Endocrinology, 91, 562 (1972) and compared against synthetic oCRF. […] In vivo testing is carried out using the general procedure set forth in C.

[2] = In vivo testing (general procedure of C. Rivier et al., Science, 218, 377 (1982)): duration of potency and blood pressure; settings: general procedure of Example III
Description: as §1

With “H-Ser-Gln-GluU-Pro-Pro-Ile-Ser-Leu-Asp-Leu-Thr-D-Phe-His-Leu-Leu-Arg-Glu-Val-Leu-Glu-Nle-Thr-Lys-Ala-Asp-Gln-Leu-Ala-Gln-Gln-Ala-His-Ser-Asn-Arg-Lys-Leu-Leu-Asp-Ile-Ala-NH₂ [[D-phe¹², Nle²¹ -oCRF]” the “stimulation of the secretion of ACTH and β-END-LI” value [1] was “stimulates the secretion of ACTH and β-END-LI” and the “lowering of blood pressure” value [2] was “very significant lowering of blood pressure”.
